Measurements as given in patent US7598260B2, “CDK-inhibitory pyrimidines, their production and use as pharmaceutical agents” (Bayer Schering Pharma Aktiengesellschaft, priority 2001, dated 2009).
pIC50: −log10 of the molar value. Where two headings read alike, the source gives them in different places.

Assays:
[1] = system: human tumor cells (as indicated); test: Proliferation assay, crystal violet staining, other human tumor cells as indicated in the tables; format: cell-based; conditions: 4 days incubation
Protocol: (§1) Cultivated human tumor cells (as indicated) are flattened out at a density of 5000 cells/measuring point in a 96-hole multititer plate in 200 μl of the corresponding growth medium. After 24 hours, the cells of one plate (zero-point plate) are colored with crystal violet (see below), while the medium of the other plates is replaced by fresh culture medium (200 μl), to which the test substances are added at various concentrations (0 μm, as well as in the range of 0.01-30 μm; the final concentration of the solvent dimethyl sulfoxide is 0.5%). The cells are incubated for 4 days in the presence of test substances. The cell proliferation is determined by coloring the cells with crystal violet: the cells are fixed by adding 20 μl/measuring point of a 11% glutaric aldehyde solution for 15 minutes at room temperature. After three washing cycles of the fixed cells with water, the plates are dried at room temperature. The cells are colored by adding 100 μl/measuring point of a 0.1% crystal violet solution (pH is set at 3 by adding acetic acid). After three washing cycles of the colored cells with water, the plates are dried at room temperature. The dye is dissolved by adding 100 μl/measuring point of a 10% acetic acid solution. The extinction is determined by photometry at a wavelength of 595 nm. The change of cell growth, in percent, is calculated by standardization of the measured values to the extinction values of the zero-point plate (=0%) and the extinction of the untreated (0 μm) cells (=100%).

[2] = system: MCF-7 cells; test: Proliferation assay, crystal violet staining (cell test), MCF-7; format: cell-based; conditions: Homo sapiens; for IC50: 96 h, MCF7 cells, 4 days incubation, read-out: Proliferation IC50 [μM] MCF7
Protocol: as §1

[3] = Solubility (Löslichkeit, g/l); format: physicochemical
[4] = target: T1, CDK2/CycE (Homo sapiens, UniProt P24941); test: CDK2/CycE kinase assay (enzyme test); format: biochemical; conditions: read-out: Inhibition IC50 [nM] CDK2/CycE
T1 construct: GST; purchased Dr. Dieter Marmé, Klinik für Tumorbiologie, Freiburg; host or cells: baculovirus-infected Sf9 insect cells
Protocol: Recombinant CDK2- and CycE-GST-fusion proteins, purified from baculovirus-infected insect cells (Sf9), are obtained by Dr. Dieter Marmé, Klinik für Tumorbiologie [Clinic for Tumor Biology], Freiburg. Histone IIIS, which is used as a kinase substrate, is purchased by the Sigma Company.
The reaction was is stopped by adding EDTA solution (250 mmol, pH 8.0, 14 μl/measuring point).
From each reaction batch, 10 μl applied to P30 filter strips (Wallac Company), and non-incorporated ^33P-ATP is removed by subjecting the filter strips to three washing cycles for 10 minutes each in 0.5% phosphoric acid. After the filter strips are dried for one hour at 70° C., the filter were are covered with scintillator strips (MeltiLex™ A, Wallac Company) and baked for one hour at 90° C. The amount of incorporated ^33P (substrate phosphorylation) is determined by scintillation measurement in a gamma-radiation measuring device (Wallac).

[5] = DU-145, 96 h, DU145 cells, read-out: Proliferation IC50 [μM] DU145
[6] = HCT-116, 96 h, HCT116 cells, read-out: Proliferation IC50 [μM] HCT116
[7] = NCI-H460, 96 h, H460 cells, read-out: Proliferation IC50 [μM] H460

Row | IC50 [1, 5] [µM] | IC50 [1, 6] [µM] | IC50 [1, 7] [µM] | IC50 [2] [µM] | Sw [3] [g/L] | IC50 [4] [nM] | pIC50 ([2]; MCF7, MCF-7 cells, comparison with known compounds, read-out: MCF-7 IC50) | Löslichkeit ([3]; comparison with known compounds) [g/L] | SMILES
1 | 0.6 | 0.5 | 0.6 | 0.4 | 0.018 | 30 | – | – | C#CCNc1nc(Nc2cccc(S(N)(=O)=O)c2)ncc1Br [Example 36]
2 | 0.5 | 1.2 | 1.7 | 2 | 0.0094 | 10 | – | – | CCC(Nc1nc(Nc2ccc(S(N)(=O)=O)cc2)ncc1Br)C(=O)OC (centres unmarked) [Example 45]
3 | 1.2 | 1.1 | 1.5 | 1.2 | 0.017 | 70 | – | – | C#CCNc1nc(Nc2ccc([S+](C)[O-])cc2)ncc1Br (centres unmarked) [Example 25]
4 | 0.3 | 0.4 | 0.4 | 1.2 | 0.005 | 8 | – | – | C#CCNc1nc(Nc2ccc(S(N)(=O)=O)cc2)ncc1Cl [Example 44]
5 | 0.3 | 0.4 | 1 | 0.2 | 0.042 | 4 | 6.70 | 0.042 | CC(C)[C@H](CO)Nc1nc(Nc2ccc(S(=O)(=O)NCCO)cc2)ncc1Br [Example 48]
6 | 9 | 3 | 3 | 1 | 0.002 | 20 | – | – | C#CCOc1nc(Nc2ccc(OCC3CO3)cc2)ncc1Br (centres unmarked) [Example 40]
7 | 0.5 | 1.2 | 1.5 | 0.7 | 0.028 | 6 | – | – | COC[C@H](C)Nc1nc(Nc2ccc(S(N)(=O)=O)cc2)ncc1Br [Example 7]
8 | 1.5 | 1.5 | 1.5 | 1.2 | 0.003 | 40 | – | – | C#CCOc1nc(Nc2ccc(C(C)=O)cc2)ncc1Br [Example 22, 1-[4-[(5-Bromo-4-(2-propynyloxy)-2-pyrimidinyl)amino]phenyl]-ethanone]
